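These data come from cells grown in 96-well plates and exposed to compound for 48 hours at five concentrations. Abbreviation: GI50, concentration required for 50% inhibition of growth. Definition used: TGI = concentration required for complete inhibition of growth.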
Legend:
Test in all cases: inhibition of tumour cell growth, NCI panel, 48 h
[1] = tested on: UACC-62 melanoma
[2] = tested on: IGROV1 ovarian
[3] = tested on: SF-539 CNS
[4] = tested on: HS 578T breast
[5] = tested on: SNB-75 CNS
[6] = tested on: M14 melanoma
[7] = tested on: MOLT-4 leukemia
[8] = tested on: SK-OV-3 ovarian
[9] = tested on: SNB-19 CNS
[10] = tested on: OVCAR-4 ovarian

Structure (SMILES)	TGI [1]	TGI [2]	TGI [3]	TGI [4]	TGI [5]	TGI [6]	TGI [7]	TGI [8]	TGI [9]	TGI [10]	GI50 [1]	GI50 [2]	GI50 [3]	GI50 [4]	GI50 [5]	GI50 [6]	GI50 [7]	GI50 [8]	GI50 [9]	GI50 [10]
C=C1C(=O)OC2/C=C(\C)C3OC3/C=C(/C(=O)OC)C(OC(C)=O)C(OC(=O)C(C)(O)C(C)OC(C)=O)C12 (stereo not given)	4.55 µM	5.71 µM	5.43 µM	29.7 µM	10.6 µM	8.05 µM	3.68 µM	33 µM	29.1 µM	12.6 µM										
CC([O-])C(=O)[O-].NCC1CCC1CN.[Pt+4] (stereo not given)	> 10 µM	> 10 µM	> 10 µM	> 10 µM	> 10 µM	> 10 µM	> 10 µM	> 10 µM	> 10 µM	> 10 µM	6.87 µM	> 10 µM	> 10 µM	> 10 µM	> 10 µM	> 10 µM	8.71 µM	> 10 µM	> 10 µM	> 10 µM
CCCCCCCCCC(CCCC(O)CC(=O)O)OC1OC(COC2OC(C)C(O)C(O)C2O)C(O)C(O)C1OC1OC(CO)C(O)C(O)C1OC1OC(C)C(O)C(O)C1O (stereo not given)	> 40 µM	> 40 µM	> 40 µM	> 40 µM	> 40 µM	> 40 µM	> 40 µM	> 40 µM	> 40 µM	> 40 µM	> 40 µM	> 40 µM	> 40 µM	> 40 µM	> 40 µM	> 40 µM	> 40 µM	> 40 µM	> 40 µM	> 40 µM
C=C(CN1CCN(c2cccc(F)c2)CC1)c1ccc(C(=O)Nc2ccccc2N)cc1	63.5 µM	3.9 µM	5.77 µM	> 100 µM	6.24 µM	2.38 µM	2.76 µM	> 100 µM	> 100 µM	33.9 µM	2.02 µM	0.333 µM	1.45 µM	2.61 µM	0.492 µM	0.311 µM	0.315 µM	5.31 µM	1.95 µM	3.35 µM
O=C1c2cccnc2C(=O)c2c1c(C(=O)OCCN1CCOCC1)c1ccccn21	0.11 µM	9.91 µM	< 0.0212 µM	10.8 µM	0.572 µM	0.116 µM	3.22 µM	0.0371 µM	3.15 µM	5.29 µM	< 0.01 µM	0.0406 µM	< 0.01 µM	0.0243 µM	< 0.01 µM	< 0.01 µM	0.0938 µM	< 0.01 µM	< 0.01 µM	1.07 µM
COc1ccc(CNc2nc(NCc3ccc(OC)cc3)c3n[nH]c(C(C)C)c3n2)cc1	20 µM	13.7 µM	23.5 µM	26 µM	5.32 µM	5 µM	14.4 µM	22.9 µM	23.1 µM	17.5 µM	5.94 µM	4.38 µM	5.98 µM	2.97 µM	0.406 µM	2.28 µM	3.88 µM	8.3 µM	4.46 µM	1.76 µM
C/C(=N\NC(=O)c1ccncc1)c1ccc(O)cc1O	> 100 µM	63.4 µM	> 100 µM	> 100 µM	88.2 µM	> 100 µM	> 100 µM	> 100 µM	> 100 µM	> 100 µM	3.3 µM	4.89 µM	5.67 µM	43.3 µM	14.1 µM	6.44 µM	4.14 µM	5.34 µM	5.29 µM	2.68 µM
CC(C)Oc1ccc(C(=O)N[C@H](CNC(=O)CN(C)C)Cc2ccc(-c3cn4cccc([C@H](C)O)c4n3)cc2)cc1Cl	24.3 µM	31 µM	1.19 µM	33.4 µM	13.3 µM	0.15 µM	18 µM	22.9 µM	23.9 µM	18.7 µM	0.0706 µM	11.1 µM	0.0323 µM	1.38 µM	0.0222 µM	0.0301 µM	0.0441 µM	0.0694 µM	0.0625 µM	0.316 µM
Cc1ccc(NC(=O)c2nc(S(C)=O)oc2-c2ccc(F)cc2)cc1Nc1nccc(-c2cccnc2)n1 (stereo not given)	3.38 µM	3.85 µM	3.71 µM	8.94 µM	5.43 µM	4.34 µM	6.82 µM	25.7 µM	3.91 µM	9 µM	1.8 µM	1.89 µM	1.77 µM	2.96 µM	2.31 µM	1.99 µM	2.17 µM	10.5 µM	2.15 µM	3.16 µM

From PubChem BioAssay (NCI)
